Assay results published in patent US12157730B2, “Heteroaryl derivative, method for producing same, and pharmaceutical composition comprising same as effective component” (VORONOI INC., priority 2019, dated 2024).

Molecular target: T1, Ba/F3 cell EGFR Exon20 ins NPH (Homo sapiens, UniProt P00533, INS773NPH)
T1 construct: expressed in transfected cells; host or cells: Ba/F3
Experiment: Ba/F3 cell proliferation suppression, EGFR Exon20 ins NPH
Assay type: cell-based
Conditions: GI50 class; Ba/F3 cell line with NPH inserted at Exon20 of EGFR; 72 hours
How it was run: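 Growth suppression determined as GI50 following 72 h exposure across 12 concentrations up to 50 um, with viability by luminescent ATP assay (CellTiter-Glo).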

Q: With `C=CC(=O)Nc1cc(Nc2cc(N3OCC[C@@H]3c3ccc(Cl)cc3F)ncn2)c(OC)cc1N1CCN(CC)CC1` [compound 401, N-(5-((6-((R)-3-(4-chloro-2-fluorophenyl)isoxazolidine-2-yl)pyrimidine-4-yl)amino)-2-(4-ethylpiperazine-1-yl)-4-methoxyphenyl) acrylamide] as the compound, how does the “Ba/F3 (NPH) Activity” value read?
A: A (GI50 < 50 nM)

Q: How did the “Ba/F3 (NPH) Activity” value turn out when `C=CC(=O)Nc1cc(Nc2cc(N3OCC[C@@H]3c3ccccc3)ncn2)c(OC)cc1N1CCC(N2CCN(CC3CC3)CC2)CC1` [Example 91, N-(2-(4-(4-(cyclopropylmethyl)piperazine-1-yl)piperidine-1-yl)-4-methoxy-5-((6-((R)-3-phenylisoxazolidine-2-yl)pyrimidine-4-yl)amino)phenyl)acrylamide] was run?
A: A (GI50 < 50 nM)

Q: Which “Ba/F3 (NPH) Activity” value does the source give for `C=CC(=O)Nc1cc(Nc2cc(N3OCC[C@@H]3c3cccc(Cl)c3C)ncn2)c(OC)cc1N1CCC(N2CCC(F)(F)CC2)CC1` [compound 581, N-(5-((6-((R)-3-(3-chloro-2-methylphenyl)isoxazolidine-2-yl)pyrimidine-4-yl)amino)-2-(4,4-difluoro-[1,4'-bipiperidine]-1'-yl)-4-methoxyphenyl) acrylamide] here?
A: A (GI50 < 50 nM)

Q: For `C=CC(=O)Nc1cc(Nc2cc(N3OCC[C@@H]3c3ccc(F)cc3)ncn2)c(OC)cc1N1CCC(N2CCN(C3CCC3)CC2)CC1` [Example 76, N-(2-(4-(4-cyclobutylpiperazine-1-yl)piperidine-1-yl)-5-((6-((R)-3-(4-fluorophenyl)isoxazolidine-2-yl)pyrimidine-4-yl)amino)-4-methoxyphenyl) acrylamide], which “Ba/F3 (NPH) Activity” value is on record?
A: A (GI50 < 50 nM)

Q: How did the “Ba/F3 (NPH) Activity” value turn out when `C=CC(=O)Nc1cc(Nc2cc(N3OCC[C@@H]3c3cccc(C#N)c3)ncn2)c(OC)cc1N1CCC(N2CCOC[C@H]2C)CC1` [compound 388, N-(5-((6-((R)-3-(3-cyanophenyl)isoxazolidine-2-yl)pyrimidine-4-yl)amino)-4-methoxy-2-(4-((R)-3-methylmorpholino)piperidine-1-yl)phenyl) acrylamide] was run?
A: A (GI50 < 50 nM)

Q: For `C=CC(=O)Nc1cc(Nc2cc(N3OCC[C@@H]3c3ccc(Cl)c(F)c3)ncn2)c(OC)cc1N1CCC(N2CCN(C3CCC3)CC2)CC1` [Example 71, N-(5-((6-((R)-3-(4-chloro-3-fluorophenyl)isoxazolidine-2-yl)pyrimidine-4-yl)amino)-2-(4-(4-cyclobutylpiperazine-1-yl)piperidine-1-yl)-4-methoxyphenyl) acrylamide], which “Ba/F3 (NPH) Activity” value is on record?
A: A (GI50 < 50 nM)

Q: `C=CC(=O)Nc1cc(Nc2cc(N3OCC[C@@H]3c3ccc(C)nc3)ncn2)c(OC)cc1N1CCN(C2CCN(C)CC2)CC1` [Example 48, N-(4-methoxy-2-(4-(1-methylpiperidine-4-yl)piperazine-1-yl)-5-((6-((R)-3-(6-methylpyridine-3-yl)isoxazolidine-2-yl)pyrimidine-4-yl)amino)phenyl) acrylamide] was tested. Which “Ba/F3 (NPH) Activity” value did it give?
A: B (50 nM ≤ GI50 < 500 nM)

Q: How did the “Ba/F3 (NPH) Activity” value turn out when `C=CC(=O)Nc1cc(Nc2cc(N3OCC[C@@H]3c3cccc(C)c3F)ncn2)c(OC)cc1N1CCN(C2COC2)CC1` [compound 908, N-(5-((6-((R)-3-(2-fluoro-3-methylphenyl)isoxazolidine-2-yl)pyrimidine-4-yl)amino)-4-methoxy-2-(4-(oxetane-3-yl)piperazine-1-yl)phenyl) acrylamide] was run?
A: A (GI50 < 50 nM)

Q: For `C=CCN1CCN(C2CCN(c3cc(OC)c(Nc4cc(N5OCC[C@@H]5c5cccc(C#N)c5)ncn4)cc3NC(=O)C=C)CC2)CC1` [Example 210, N-(2-(4-(4-allylpiperazine-1-yl)piperidine-1-yl)-5-((6-((R)-3-(3-cyanophenyl)isoxazolidine-2-yl)pyrimidine-4-yl)amino)-4-methoxyphenyl) acrylamide], which “Ba/F3 (NPH) Activity” value is on record?
A: A (GI50 < 50 nM)

Q: How did the “Ba/F3 (NPH) Activity” value turn out when `C=CC(=O)Nc1cc(Nc2cc(N3OCC[C@@H]3c3ccc(F)cc3F)ncn2)c(OC)cc1N(C)CCOC` [compound 347, N-(5-((6-((R)-3-(2,4-difluorophenyl)isoxazolidine-2-yl)pyrimidine-4-yl)amino)-4-methoxy-2-((2-methoxyethyl)(methyl)amino)phenyl) acrylamide] was run?
A: A (GI50 < 50 nM)

Q: With `C=CC(=O)Nc1cc(Nc2cc(N3OCC[C@@H]3c3ccc(Cl)c(Cl)c3)ncn2)c(OC)cc1N1CCN(C(C)C)CC1` [compound 680, N-(5-((6-((R)-3-(3,4-dichlorophenyl)isoxazolidine-2-yl)pyrimidine-4-yl)amino)-2-(4-isopropylpiperazine-1-yl)-4-methoxyphenyl) acrylamide] as the compound, how does the “Ba/F3 (NPH) Activity” value read?
A: A (GI50 < 50 nM)

Q: Which “Ba/F3 (NPH) Activity” value does the source give for `C=CC(=O)Nc1cc(Nc2cc(N3OCC[C@@H]3c3ccc(F)cc3F)ncn2)c(OC)cc1N1CCC(N2CCN(C3CC3)CC2)CC1` [Example 139, N-(2-(4-(4-cyclopropylpiperazine-1-yl)piperidine-1-yl)-5-((6-((R)-3-(2,4-difluorophenyl)isoxazolidine-2-yl)pyrimidine-4-yl)amino)-4-methoxyphenyl) acrylamide] here?
A: A (GI50 < 50 nM)

Q: For `C=CC(=O)Nc1cc(Nc2cc(N3OCC[C@@H]3c3cccc(C)c3F)ncn2)c(OC)cc1N1CCC(N(C)C)CC1` [compound 864, N-(2-(4-(dimethylamino)piperidine-1-yl)-5-((6-((R)-3-(2-fluoro-3-methylphenyl)isoxazolidine-2-yl)pyrimidine-4-yl)amino)-4-methoxyphenyl) acrylamide], which “Ba/F3 (NPH) Activity” value is on record?
A: A (GI50 < 50 nM)

Q: With `C=CC(=O)Nc1cc(Nc2cc(N3OCC[C@H]3c3c(F)cccc3F)ncn2)c(OC)cc1N1CCN(C)CC1` [compound 307, N-(5-((6-((S)-3-(2,6-difluorophenyl)isoxazolidine-2-yl)pyrimidine-4-yl)amino)-4-methoxy-2-(4-methylpiperazine-1-yl)phenyl)acrylamide] as the compound, how does the “Ba/F3 (NPH) Activity” value read?
A: C (500 nM ≤ GI50 < 5000 nM)

Q: `C=CC(=O)Nc1cc(Nc2cc(N3OCC[C@@H]3c3ccc4ccccc4c3)ncn2)c(OC)cc1N1CCC(N2CCN(C)CC2)CC1` [compound 554, N-(4-methoxy-2-(4-(4-methylpiperazine-1-yl)piperidine-1-yl)-5-((6-((R)-3-(naphthalene-2-yl)isoxazolidine-2-yl)pyrimidine-4-yl)amino)phenyl)acrylamide] was tested. Which “Ba/F3 (NPH) Activity” value did it give?
A: B (50 nM ≤ GI50 < 500 nM)

Q: With `C=CC(=O)Nc1cc(Nc2cc(N3OCC[C@@H]3Cc3cccc(N(C)C)c3)ncn2)c(OC)cc1N1CCC(N2CCN(C3CC3)CC2)CC1` [compound 1044, N-(2-(4-(4-cyclopropylpiperazine-1-yl)piperidine-1-yl)-5-((6-((S)-3-(3-(dimethylamino)benzyl)isoxazolidine-2-yl)pyrimidine-4-yl)amino)-4-methoxyphenyl) acrylamide] as the compound, how does the “Ba/F3 (NPH) Activity” value read?
A: B (50 nM ≤ GI50 < 500 nM)

Q: With `C=CC(=O)Nc1cc(Nc2cc(N3OCC[C@@H]3c3cccc(Cl)c3C)ncn2)c(OC)cc1N1CCC(N2CCN(CC)CC2)CC1` [compound 487, N-(5-((6-((R)-3-(3-chloro-2-methylphenyl)isoxazolidine-2-yl)pyrimidine-4-yl)amino)-2-(4-(4-ethylpiperazine-1-yl)piperidine-1-yl)-4-methoxyphenyl) acrylamide] as the compound, how does the “Ba/F3 (NPH) Activity” value read?
A: A (GI50 < 50 nM)

Q: Which “Ba/F3 (NPH) Activity” value does the source give for `C#Cc1cccc([C@H]2CCON2c2cc(Nc3cc(NC(=O)C=C)c(N4CC[C@@H](N(C)C)C4)cc3OC)ncn2)c1` [compound 653, N-(2-((R)-3-(dimethylamino)pyrolidine-1-yl)-5-((6-((R)-3-(3-ethynylphenyl)isoxazolidine-2-yl)pyrimidine-4-yl)amino)-4-methoxyphenyl) acrylamide] here?
A: A (GI50 < 50 nM)

Q: With `C=CC(=O)Nc1cc(Nc2cc(N3OCC[C@@H]3c3ccc4ccccc4c3)ncn2)c(OC)cc1N1CCC(N2C[C@@H]3C[C@H]2CO3)CC1` [compound 512, N-(2-(4-((1S,4S)-2-oxa-5-azabicyclo[2.2.1]heptane-5-yl)piperidine-1-yl)-4-methoxy-5-((6-((R)-3-(naphthalene-2-yl)isoxazolidine-2-yl)pyrimidine-4-yl)amino)phenyl)acrylamide] as the compound, how does the “Ba/F3 (NPH) Activity” value read?
A: A (GI50 < 50 nM)

Q: `C=CC(=O)Nc1cc(Nc2cc(N3OCC[C@@H]3Cc3cccc(Cl)c3Cl)ncn2)c(OC)cc1N1CCC(N2CCO[C@H](C)C2)CC1` [compound 1011, N-(5-((6-((S)-3-(2,3-dichlorobenzyl)isoxazolidine-2-yl)pyrimidine-4-yl)amino)-4-methoxy-2-(4-((R)-2-methylmorpholino)piperidine-1-yl)phenyl) acrylamide] was tested. Which “Ba/F3 (NPH) Activity” value did it give?
A: A (GI50 < 50 nM)

Q: How did the “Ba/F3 (NPH) Activity” value turn out when `C=CC(=O)Nc1cc(Nc2cc(N3OCC[C@@H]3c3ccc(F)c(Cl)c3F)ncn2)c(OC)cc1N1CCC(N2CCN(CC)CC2)CC1` [compound 639, N-(5-((6-((R)-3-(3-chloro-2,4-difluorophenyl)isoxazolidine-2-yl)pyrimidine-4-yl)amino)-2-(4-(4-ethylpiperazine-1-yl)piperidine-1-yl)-4-methoxyphenyl) acrylamide] was run?
A: A (GI50 < 50 nM)

Q: How did the “Ba/F3 (NPH) Activity” value turn out when `C=CC(=O)Nc1cc(Nc2cc(N3OCC[C@@H]3c3ccc(Cl)c(Cl)c3)ncn2)c(OC)cc1N1C[C@H]2C[C@@H]1CN2C` [compound 674, N-(5-((6-((R)-3-(3,4-dichlorophenyl)isoxazolidine-2-yl)pyrimidine-4-yl)amino)-4-methoxy-2-((1R,4R)-5-methyl-2,5-diazabicyclo[2.2.1]heptane-2-yl)phenyl) acrylamide] was run?
A: A (GI50 < 50 nM)

Q: With `C=CC(=O)Nc1cc(Nc2cc(N3OCC[C@@H]3c3cccc(C#N)c3)ncn2)c(OC)cc1N1CCC(N2CC[C@H](N(C)C)C2)CC1` [compound 435, N-(5-((6-((R)-3-(3-cyanophenyl)isoxazolidine-2-yl)pyrimidine-4-yl)amino)-2-(4-((S)-3-(dimethylamino)pyrolidine-1-yl)piperidine-1-yl)-4-methoxyphenyl) acrylamide] as the compound, how does the “Ba/F3 (NPH) Activity” value read?
A: B (50 nM ≤ GI50 < 500 nM)
